Laboratory results reported in US8173689B2 (Novartis AG, priority 2006, dated 2012).
Like-named read-outs stand apart in the source and are kept apart here.

Assays:
[1] = target: T1, cytoplasmic domain of the human CSF-1R (Homo sapiens, UniProt P07333); experiment: In vitro kinase assay for colony stimulating factor-1 receptor (AlphaScreen); type: biochemical; settings: tested at about 1 μM, read-out: CSF-1R percent inhibition
T1 construct: Recombinant protein corresponding to the cytoplasmic domain of the human CSF-1R; purchased Invitrogen Corporation, Carlsbad, Calif; PV3249
T1 sequence (P07333 539-972 limits assumed): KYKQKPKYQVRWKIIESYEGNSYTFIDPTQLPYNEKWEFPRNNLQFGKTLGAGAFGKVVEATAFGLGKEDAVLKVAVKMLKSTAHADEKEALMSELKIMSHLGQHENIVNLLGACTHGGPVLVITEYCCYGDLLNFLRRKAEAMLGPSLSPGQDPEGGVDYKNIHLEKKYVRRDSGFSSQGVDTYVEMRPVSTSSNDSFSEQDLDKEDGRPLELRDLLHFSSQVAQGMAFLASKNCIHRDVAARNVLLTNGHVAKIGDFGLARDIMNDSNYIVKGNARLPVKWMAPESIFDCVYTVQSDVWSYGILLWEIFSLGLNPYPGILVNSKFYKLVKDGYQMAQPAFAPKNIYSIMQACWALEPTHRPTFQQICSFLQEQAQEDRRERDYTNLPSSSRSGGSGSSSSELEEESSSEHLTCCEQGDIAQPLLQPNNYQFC
How it was run: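 4 nM enzyme, 1 μM ATP; buffer 50 mM Hepes pH 7.5, 5 mM MgCl2, 10 mM MnCl2, 1.0 mM DTT, 0.1% BSA, 0.01% Tween 80. Readout: AlphaScreen, PT66 acceptor/streptavidin donor, overnight.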

[2] = test system: MNFS60 (murine AML cells); experiment: Cell viability assay in MCSF dependent MNFS60 cells (Cell Titer Glo); type: cell-based; settings: Mus musculus, tested at about 1 μM, read-out: M-NFS-60 CP percent inhibition
How it was run: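 MNFS60 cells grown with 10 ng/ml MCSF (final) were exposed for 72 hrs at 37° C., 5% CO2 to 3-fold serial compound dilutions. Viable cells were measured by Cell Titer Glo luminescence, in triplicate, and EC50s were derived by curve fitting.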

kinase domain of cKIT = target: T2, kinase domain of cKIT (Homo sapiens, UniProt P10721); experiment: Inhibition of cKIT kinase signaling in an in vitro biochemical assay (alphascreen); settings: tested at about 1 μM, read-out: cKit percent inhibition
T2 construct: The kinase domain of cKIT was assayed in 50 mM Hepes; purchased Upstate 14-559
T2 sequence (P10721 589-937 limits assumed): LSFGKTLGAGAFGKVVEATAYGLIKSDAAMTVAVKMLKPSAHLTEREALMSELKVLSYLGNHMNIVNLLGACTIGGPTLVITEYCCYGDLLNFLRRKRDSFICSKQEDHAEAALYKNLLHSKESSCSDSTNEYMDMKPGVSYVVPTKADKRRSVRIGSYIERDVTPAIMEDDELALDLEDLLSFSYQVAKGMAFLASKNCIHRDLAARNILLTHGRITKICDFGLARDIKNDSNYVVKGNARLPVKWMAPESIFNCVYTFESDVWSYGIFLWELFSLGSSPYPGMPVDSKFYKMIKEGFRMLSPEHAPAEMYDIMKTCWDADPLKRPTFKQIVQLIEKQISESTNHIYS

kinase domain of PDGFRβ = target: T3, kinase domain of PDGFRβ (Homo sapiens, UniProt P09619); experiment: Inhibition of PDGFRb kinase signaling in an in vitro biochemical assay (alphascreen); settings: tested at about 1 μM, read-out: PDGFRβ percent inhibition
T3 construct: The kinase domain of PDGFRβ was assayed in 50 mM Hepes; purchased Invitrogen P3082
T3 sequence (P09619 600-962 limits assumed): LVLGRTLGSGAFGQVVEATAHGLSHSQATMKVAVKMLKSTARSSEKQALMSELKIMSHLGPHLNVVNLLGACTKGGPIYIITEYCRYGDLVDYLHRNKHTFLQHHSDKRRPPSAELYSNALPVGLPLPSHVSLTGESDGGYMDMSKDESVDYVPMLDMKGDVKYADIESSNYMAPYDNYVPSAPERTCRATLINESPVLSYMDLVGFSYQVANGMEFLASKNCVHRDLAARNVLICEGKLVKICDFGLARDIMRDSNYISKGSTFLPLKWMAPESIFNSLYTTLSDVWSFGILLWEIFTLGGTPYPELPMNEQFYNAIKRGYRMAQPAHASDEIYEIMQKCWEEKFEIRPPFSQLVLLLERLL

Row | inhibition at 1 µM [1] | inhibition at 1 µM (kinase domain of cKIT) | inhibition at 1 µM (kinase domain of PDGFRβ) | inhibition at 1 µM ([1]; compounds of Table 3) | inhibition at 1 µM (kinase domain of cKIT; compounds of Table 3) | inhibition at 1 µM (kinase domain of PDGFRβ; compounds of Table 3) | SMILES | inhibition at 1 µM ([2]; MCSF dependent MNFS60 cells) | inhibition at 1 µM ([2]; compounds of Table 3) | inhibition at 1 µM ([2]; MNFS60 cells)
1 | 100% | 100% | 99% | – | – | – | Cn1cc(-c2cc(Oc3ccc4nc(NCc5ccccc5OC(F)F)sc4c3)ccn2)cn1 [Example 356, N-(2-(difluoromethoxy)benzyl)-6-(2-(1-methyl-1H-pyrazol-4-yl)pyridin-4-yloxy)benzo[d]thiazol-2-amine] | 100% | – | –
2 | 99% | 2% | 0% | – | – | – | CNC(=O)c1cc(Oc2ccc3nc(N[C@H]4CCCC[C@H]4NS(C)(=O)=O)sc3c2)ccn1 [Example 300, N-methyl-4-(2-((1S,2R)-2-(methylsulfonylamido)cyclo-hexylamino)benzo[d]thiazol-6-yloxy)picolinamide] | 14% | – | –
3 | – | – | – | 99% | 33% | 8% | O[C@@H]1CCCC[C@H]1Nc1nc2ccc(Oc3ccnc(-c4cncnc4)c3)cc2s1 [Example 285, (1R,2R)-2-(6-(2-(pyrimidin-5-yl)pyridin-4-yloxy)benzo[d]thiazol-2-ylamino)cyclohexanol] | – | 0% | –
4 | 98% | 48% | 85% | – | – | – | CNC(=O)c1cc(Oc2ccc3nc(Nc4cccc(CCN5CCCCC5)c4)oc3c2)ccn1 [Compound 58, 4-{2-[3-(2-Piperidin-1-yl-ethyl)-phenylamino]-benzooxazol-6-yloxy}-pyridine-2-carboxylic acid methylamide] | – | – | 30%
5 | – | – | – | 100% | 38% | 12% | CNC(=O)c1cc(Oc2ccc3nc(NCC4COc5ccccc5O4)sc3c2)ccn1 (stereo not shown) [Compound 144] | – | 41% | –
6 | 94% | 23% | 14% | – | – | – | CNC(=O)c1cc(Oc2ccc3nc(N[C@H]4CCCN(C(=O)c5ccccc5)C4)sc3c2)ccn1 [Example 336, (S)-4-(2-(1-benzoylpiperidin-3-ylamino)benzo[d]thiazol-6-yloxy)-N-methylpicolinamide] | 17% | – | –
7 | – | – | – | 100% | 90% | 70% | CNC(=O)c1cc(Oc2ccc3nc(NCCC(C)C)sc3c2)ccn1 [Compound 130] | – | 79% | –
8 | 100% | 53% | 0% | – | – | – | CNC(=O)c1cc(Oc2ccc3nc(NCc4ccc5c(c4)OCCO5)oc3c2)ccn1 [Compound 122, 4-{2-[(2,3-Dihydro-benzo-[1,4]dioxin-6-ylmethyl)-amino]-benzooxazol-6-yloxy}-pyridine-2-carboxylic acid methylamide] | – | – | 19%
9 | – | – | – | 96% | 23% | 2% | CNC(=O)c1cc(Oc2ccc3nc(NCCc4cnccn4)sc3c2)ccn1 [Compound 148] | – | 1% | –
10 | – | – | – | 100% | 9% | 12% | Cn1nccc1-c1cc(Oc2ccc3nc(N[C@@H]4CCCC[C@H]4O)sc3c2)ccn1 [Example 265, (1R,2R)-2-(6-(2-(1-methyl-1H-pyrazol-5-yl)pyridin-4-yloxy)benzo[d]thiazol-2-ylamino)cyclohexanol] | – | 32% | –
11 | – | – | – | 100% | 43% | 17% | O[C@@H]1CCCC[C@H]1Nc1nc2ccc(Oc3ccnc(-c4cncs4)c3)cc2s1 [Compound 157] | – | 42% | –

Continued, compound first:

Row | SMILES | inhibition at 1 µM [1] | inhibition at 1 µM (kinase domain of cKIT) | inhibition at 1 µM (kinase domain of PDGFRβ) | inhibition at 1 µM ([1]; compounds of Table 3) | inhibition at 1 µM (kinase domain of cKIT; compounds of Table 3) | inhibition at 1 µM (kinase domain of PDGFRβ; compounds of Table 3) | inhibition at 1 µM ([2]; MCSF dependent MNFS60 cells) | inhibition at 1 µM ([2]; compounds of Table 3) | inhibition at 1 µM ([2]; MNFS60 cells)
12 | OC[C@H](Cc1ccccc1)Nc1nc2ccc(Oc3ccnc4ccccc34)cc2s1 [Example 242] | – | – | – | 100% | 97% | 35% | – | 51% | –
13 | CNC(=O)c1cc(Oc2ccc3nc(NCCc4ccccc4)oc3c2)ccn1 [Compound 61, 4-(2-Phenylethylamino-benzo-oxazol-6-yloxy)-pyridine-2-carboxylic acid methylamide] | 94% | 74% | 0% | – | – | – | – | – | 35%
14 | c1ccc2c(Oc3ccc4nc(NC5CCCCCC5)sc4c3)ccnc2c1 [Example 247, N-cycloheptyl-6-(quinolin-4-yloxy)benzo[d]thiazol-2-amine] | – | – | – | 100% | 100% | 80% | – | 100% | –
15 | Fc1ccc2c(Oc3ccc4nc(NCC5CCCCC5)sc4c3)ccnc2c1 [Example 227, N-(cyclohexylmethyl)-6-(7-fluoroquinolin-4-yloxy)benzo[d]thiazol-2-amine] | – | – | – | 100% | 100% | 47% | – | 65% | –
16 | CNC(=O)c1cc(Oc2ccc3nc(NCc4cc(OC)ccc4F)oc3c2)ccn1 [Compound 73, 4-[2-(2-Fluoro-5-methoxy-benzylamino)-benzooxazol-6-yloxy]-pyridine-2-carboxylic acid methylamide] | 100% | 21% | 2% | – | – | – | – | – | 0%
17 | OC[C@@H](Nc1nc2ccc(Oc3ccnc4ccccc34)cc2s1)C1CCCCC1 [Example 236, (S)-2-cyclohexyl-2-(6-(quinolin-4-yloxy)benzo[d]thiazol-2-ylamino)ethanol] | – | – | – | 100% | 100% | 97% | – | 100% | –
18 | CNC(=O)c1cc(Oc2ccc3nc(N[C@@H]4CCCC[C@H]4O)sc3c2C)ccn1 [Example 377, 4-(2-((1R,2R)-2-hydroxycyclohexylamino)-7-methylbenzo[d]thiazol-6-yloxy)-N-methylpicolinamide] | 100% | 75% | 49% | – | – | – | 93% | – | –
19 | C[C@@H](Nc1nc2ccc(Oc3ccnc(-c4cnn(C)c4)c3)cc2s1)C1CCCCC1 [Example 354, (R)-N-(1-cyclohexylethyl)-6-(2-(1-methyl-1H-pyrazol-4-yl)pyridin-4-yloxy)benzo[d]thiazol-2-amine] | 100% | 100% | 98% | – | – | – | 100% | – | –
20 | c1ccc2c(Oc3ccc4nc(NCCC5CCOCC5)sc4c3)ccnc2c1 [Example 252, 6-(quinolin-4-yloxy)-N-(2-(tetrahydro-2H-pyran-4-yl)ethyl)benzo[d]thiazol-2-amine] | – | – | – | 100% | 100% | 6% | – | 81% | –
21 | CNC(=O)c1cc(Oc2ccc3nc(NCc4cc(F)ccc4OC)oc3c2)ccn1 [Compound 115, 4-[2-(5-Fluoro-2-methoxy-benzylamino)-benzooxazol-6-yloxy]-pyridine-2-carboxylic acid methylamide] | 99% | 88% | 18% | – | – | – | – | – | 21%
22 | CNC(=O)c1cc(Oc2ccc3nc(NCc4ccccc4N4CCCCC4)sc3c2)ccn1 [Compound 153, 4-[2-(2-Piperidin-1-yl-benzylamino)-benzothiazol-6-yloxy]-pyridine-2-carboxylic acid methylamide] | 97% | 0% | 91% | – | – | – | – | – | 63%
